The text below walks through data of ChEMBL document CHEMBL1152288, “Characterization of thien-2-yl 1S,2R-milnacipran analogues as potent norepinephrine/serotonin transporter inhibitors for the treatment of neuropathic pain” (J Med Chem, 2008).

Activity calls are given as the source filed them. The rule behind the calls is not given here. Some results are limits rather than exact numbers.

By CL/F is commonly meant clearance divided by bioavailability, as obtained after extravascular dosing. The IC50 is the midpoint of a concentration-inhibition curve. A word on the AUC: it is the area under the concentration-time curve, a measure of exposure. What is called Kp is tissue or fluid exposure divided by exposure in the circulation. For orientation: Tmax means the time from dosing to the highest level. Broadly, the Papp A→B is how fast a substance crosses the layer from the apical side. In general, logP refers to a log measure of how a compound divides between an organic and an aqueous phase. The pKa is the negative logarithm of the acid dissociation constant. The Cmax is the peak of the concentration-time curve. As a reminder, the logD is the decadic logarithm of the distribution of all forms, ionised or not, between an organic phase and buffer at a given pH. As usually defined, the bioavailability is dose-corrected exposure relative to a reference, in per cent. Broadly, the clearance is a measure of how efficiently the substance is removed, as volume per time. Usually MRT stands for a mean duration of stay, worked out from the concentration-time curve.

Data set [1] in a line: Apparent oral clearance in Sprague-Dawley rat at 30 mg/kg, po. It counts as ADME, organism-based. Further details: dose 30 mg/kg, route oral. To be noted: in vivo.
Data set [2] deals with Sodium-dependent serotonin transporter (Homo sapiens, UniProt P31645). Put plainly: biochemical.
Description: Displacement of [alpha,beta-3H(N)]-5-hydroxytryptamine from human cloned SERT expressed in HEK293 cells by microplate scintillation counter
Data set [3] addresses Sodium-dependent serotonin transporter (Rattus norvegicus, UniProt P31652). In kind it is cell-based, HEK293.
Data set [4] in a line: AUC in Sprague-Dawley rat at 30 mg/kg, po. It counts as ADME, organism-based. Also noted: dose 30 mg/kg, route oral. To be noted: plasma.
Data set [5] is described as follows: Ratio of drug level in brain to plasma in Sprague-Dawley rat at 30 mg/kg, po after 4 hrs. It counts as ADME, organism-based. Further details: dose 30 mg/kg, route oral.
The subject of data set [6] is Rattus norvegicus. Kind of data set: Antinociceptive activity in CD rat assessed as reduction in number of hind paw flinching at 60 mg/kg, po by formalin test. It counts as functional. Also noted: scale not given: the % may be the effect or the level left.
Data set [7] is described as follows: Drug level in Sprague-Dawley rat brain at 30 mg/kg, po after 4 hrs. In kind it is ADME, organism-based. Also noted: dose 30 mg/kg, route oral. The following applies: read-out: Drug uptake.
The nature of data set [8]: Tmax in Sprague-Dawley rat at 30 mg/kg, po. In kind it is ADME, organism-based. Further details: dose 30 mg/kg, route oral. The following applies: in vivo.
Data set [9] can be described thus: Apparent elimination half life in Sprague-Dawley rat at 30 mg/kg, po. In kind it is ADME, organism-based. Further details: dose 30 mg/kg, route oral. The following applies: in vivo, read-out: beta t1/2 (converted).
The nature of another data set: in vitro. To be noted: human, Caco-2.
Data set [10] has as its target Sodium-dependent dopamine transporter (Homo sapiens, UniProt Q01959). Put plainly: biochemical.
Description: Displacement of 3,4-[ring-2,5,6-3H]dihydroxyphenylethylamine from human cloned DAT expressed in HEK293 cells by microplate scintillation counter
A short description of data set [11]: Drug level in Sprague-Dawley rat brain at 30 mg/kg, po after 1 hr. It counts as ADME, organism-based. The following applies: read-out: Drug uptake. Further details: dose 30 mg/kg, route oral.
Data set [12] in a line: Partition coefficient, log P of the compound. In kind it is physicochemical. To be noted: octanol/water.
A short description of data set [13]: Metabolic stability in human liver microsomes assessed as systemic clearance at 1 uM after 15 mins by LC-MS/MS analysis. In kind it is ADME, Microsome. A general note: Liver microsomes are a subcellular fraction often used to study metabolism.
The nature of data set [14]: Ratio of drug level in brain to plasma in Sprague-Dawley rat at 30 mg/kg, po after 1 hr. In kind it is ADME, organism-based. Further details: dose 30 mg/kg, route oral.
Data set [15] can be described thus: Cmax in Sprague-Dawley rat at 30 mg/kg, po. Further details: dose 30 mg/kg, route oral. It counts as ADME, organism-based. To be noted: in vivo.
Data set [16] is described as follows: Lipophilicity, log D of the compound. In kind it is physicochemical. To be noted: octanol/water.
A short description of data set [17]: Metabolic stability in rat liver microsomes assessed as systemic clearance at 1 uM after 15 mins by LC-MS/MS analysis. In kind it is ADME, Microsome.
In data set [18] the target is Sodium-dependent dopamine transporter (Rattus norvegicus, UniProt P23977). Kind of data set: biochemical.
Description: Displacement of 3,4-[ring-2,5,6-3H]dihydroxyphenylethylamine from rat synaptosomal DAT expressed in HEK293 cells by microplate scintillation counter
The target of data set [19] is Sodium-dependent noradrenaline transporter (Homo sapiens, UniProt P23975). Kind of data set: biochemical.
Description: Displacement of Levo[ring-2,5,6-3H]norepinephrine from human cloned NET expressed in HEK293 cells by microplate scintillation counter
The target in another data set is Transporter (Rattus norvegicus, UniProt Q63380). Kind of data set: biochemical.
A short description of data set [20]: Apparent oral clearance in Sprague-Dawley rat at 10 mg/kg, po. It counts as ADME, organism-based. Further details: dose 10 mg/kg, route oral. To be noted: in vivo.
The nature of data set [21]: Apparent elimination half life in Sprague-Dawley rat at 10 mg/kg, po. Also noted: dose 10 mg/kg, route oral. In kind it is ADME, organism-based. The following applies: in vivo, read-out: beta t1/2 (converted).
The nature of data set [22]: Volume of distribution in Sprague-Dawley rat at 2.5 mg/kg, iv. It counts as ADME, organism-based. Also noted: dose 2.5 mg/kg, route intravenous. The following applies: in vivo.
A short description of data set [23]: in vivo. The following applies: Sprague-Dawley, rat, brain/plasma, po, 10 mg/kg.
Description: Ratio of drug level in brain to plasma in Sprague-Dawley rat at 10 mg/kg, po after 1 hr
In data set [24] the test system is Rattus norvegicus. Put plainly: Antinociceptive activity in CD rat assessed as reduction in number of hind paw flinching at 100 mg/kg, po by formalin test. Also noted: dose 100 mg/kg. It counts as functional, organism-based.
Data set [25] in a line: Cmax in Sprague-Dawley rat at 10 mg/kg, po. To be noted: in vivo. It counts as ADME, organism-based. Also noted: dose 10 mg/kg, route oral.
Data set [26] in a line: Bioavailability in Sprague-Dawley rat at 2.5 mg/kg, iv. In kind it is ADME, organism-based. The following applies: in vivo.
Data set [27] is described as follows: Tmax in Sprague-Dawley rat at 10 mg/kg, po. To be noted: in vivo. It counts as ADME, organism-based. Further details: dose 10 mg/kg, route oral.
The species entered for data set [28] is Rattus norvegicus. Put plainly: Reversal of pin-prick-induced neuropathic mechanical hyperalgesia in Harlan Sprague-Dawley rat sciatic nerve ligation model. It counts as functional, organism-based.
Data set [29] in a line: Half life in Sprague-Dawley rat at 2.5 mg/kg, iv. In kind it is ADME, organism-based. Also noted: dose 2.5 mg/kg, route intravenous. To be noted: in vivo.
A short description of data set [30]: AUC in Sprague-Dawley rat at 2.5 mg/kg, iv. In kind it is ADME, organism-based. Further details: dose 2.5 mg/kg, route intravenous. To be noted: plasma.
Data set [31] is described as follows: Plasma clearance in Sprague-Dawley rat at 2.5 mg/kg, iv. In kind it is ADME, organism-based. Further details: dose 2.5 mg/kg, route intravenous.
Data set [32] can be described thus: Volume of distribution at steady state in Sprague-Dawley rat at 2.5 mg/kg, iv. To be noted: in vivo, read-out: Vdss. Also noted: dose 2.5 mg/kg, route intravenous. It counts as ADME, organism-based.
Data set [33] in a line: in vivo. To be noted: Sprague-Dawley, rat, brain/plasma, po, 10 mg/kg. The source holds these as a separate data set.
Description: Ratio of drug level in brain to plasma in Sprague-Dawley rat at 10 mg/kg, po after 4 hrs
A short description of data set [34]: Mean residence time in Sprague-Dawley rat at 2.5 mg/kg, iv. It counts as ADME, organism-based. Further details: dose 2.5 mg/kg, route intravenous. The following applies: in vivo.
Data set [35] is described as follows: AUC in Sprague-Dawley rat at 10 mg/kg, po. In kind it is ADME, organism-based. Also noted: dose 10 mg/kg, route oral. The following applies: plasma.

Sodium-dependent noradrenaline transporter, sequence (P23975 whole entry): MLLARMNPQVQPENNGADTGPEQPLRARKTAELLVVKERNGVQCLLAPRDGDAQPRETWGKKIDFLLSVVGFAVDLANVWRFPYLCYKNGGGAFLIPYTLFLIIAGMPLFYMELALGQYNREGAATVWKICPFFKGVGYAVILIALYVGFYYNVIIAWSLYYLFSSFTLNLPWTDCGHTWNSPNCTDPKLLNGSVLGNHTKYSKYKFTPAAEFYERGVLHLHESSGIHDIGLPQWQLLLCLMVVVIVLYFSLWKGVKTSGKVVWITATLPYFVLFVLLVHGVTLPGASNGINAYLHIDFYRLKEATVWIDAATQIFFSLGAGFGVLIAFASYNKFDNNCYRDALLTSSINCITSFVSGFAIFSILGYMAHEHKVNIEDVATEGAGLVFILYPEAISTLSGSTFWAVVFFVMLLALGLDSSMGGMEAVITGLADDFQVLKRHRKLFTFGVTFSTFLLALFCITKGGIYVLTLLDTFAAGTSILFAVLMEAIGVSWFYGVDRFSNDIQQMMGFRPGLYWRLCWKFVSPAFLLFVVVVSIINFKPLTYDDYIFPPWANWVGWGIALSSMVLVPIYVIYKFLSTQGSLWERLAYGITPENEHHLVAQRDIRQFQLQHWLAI
Sodium-dependent dopamine transporter (Homo sapiens, UniProt Q01959), sequence (Q01959 whole entry): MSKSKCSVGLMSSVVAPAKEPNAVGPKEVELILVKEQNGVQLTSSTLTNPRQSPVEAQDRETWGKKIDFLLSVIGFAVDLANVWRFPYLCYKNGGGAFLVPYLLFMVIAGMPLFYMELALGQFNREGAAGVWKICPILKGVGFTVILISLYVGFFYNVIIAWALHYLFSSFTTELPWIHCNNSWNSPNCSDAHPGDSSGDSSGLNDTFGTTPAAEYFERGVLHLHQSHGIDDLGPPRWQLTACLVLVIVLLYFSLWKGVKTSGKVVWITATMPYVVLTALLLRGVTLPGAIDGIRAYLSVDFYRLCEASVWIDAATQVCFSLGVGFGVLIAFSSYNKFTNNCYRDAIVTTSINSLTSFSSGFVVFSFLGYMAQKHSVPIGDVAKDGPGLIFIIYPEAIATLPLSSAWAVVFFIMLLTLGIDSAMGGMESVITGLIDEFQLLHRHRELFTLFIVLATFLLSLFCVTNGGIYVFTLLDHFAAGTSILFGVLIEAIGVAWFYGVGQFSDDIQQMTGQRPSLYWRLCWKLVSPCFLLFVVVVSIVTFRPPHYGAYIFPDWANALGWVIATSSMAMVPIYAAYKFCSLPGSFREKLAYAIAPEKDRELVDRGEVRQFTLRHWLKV
Transporter, sequence (Q63380 whole entry): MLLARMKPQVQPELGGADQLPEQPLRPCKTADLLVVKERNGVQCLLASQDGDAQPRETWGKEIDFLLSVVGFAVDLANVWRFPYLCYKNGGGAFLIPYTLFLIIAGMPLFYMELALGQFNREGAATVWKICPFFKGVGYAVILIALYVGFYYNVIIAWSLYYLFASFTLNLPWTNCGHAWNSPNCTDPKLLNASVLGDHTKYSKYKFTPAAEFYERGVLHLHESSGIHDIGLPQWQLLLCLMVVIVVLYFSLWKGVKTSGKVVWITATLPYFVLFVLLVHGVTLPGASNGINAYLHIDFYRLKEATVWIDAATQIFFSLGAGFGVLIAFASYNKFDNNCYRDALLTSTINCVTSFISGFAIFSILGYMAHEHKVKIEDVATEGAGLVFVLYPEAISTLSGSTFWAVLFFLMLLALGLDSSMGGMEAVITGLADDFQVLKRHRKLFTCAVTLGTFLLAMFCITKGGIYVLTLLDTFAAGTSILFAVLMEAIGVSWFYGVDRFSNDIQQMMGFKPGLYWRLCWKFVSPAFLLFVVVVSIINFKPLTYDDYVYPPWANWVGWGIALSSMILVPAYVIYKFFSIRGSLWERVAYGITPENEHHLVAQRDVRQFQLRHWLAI
Sodium-dependent serotonin transporter (Homo sapiens, UniProt P31645), sequence (P31645 whole entry): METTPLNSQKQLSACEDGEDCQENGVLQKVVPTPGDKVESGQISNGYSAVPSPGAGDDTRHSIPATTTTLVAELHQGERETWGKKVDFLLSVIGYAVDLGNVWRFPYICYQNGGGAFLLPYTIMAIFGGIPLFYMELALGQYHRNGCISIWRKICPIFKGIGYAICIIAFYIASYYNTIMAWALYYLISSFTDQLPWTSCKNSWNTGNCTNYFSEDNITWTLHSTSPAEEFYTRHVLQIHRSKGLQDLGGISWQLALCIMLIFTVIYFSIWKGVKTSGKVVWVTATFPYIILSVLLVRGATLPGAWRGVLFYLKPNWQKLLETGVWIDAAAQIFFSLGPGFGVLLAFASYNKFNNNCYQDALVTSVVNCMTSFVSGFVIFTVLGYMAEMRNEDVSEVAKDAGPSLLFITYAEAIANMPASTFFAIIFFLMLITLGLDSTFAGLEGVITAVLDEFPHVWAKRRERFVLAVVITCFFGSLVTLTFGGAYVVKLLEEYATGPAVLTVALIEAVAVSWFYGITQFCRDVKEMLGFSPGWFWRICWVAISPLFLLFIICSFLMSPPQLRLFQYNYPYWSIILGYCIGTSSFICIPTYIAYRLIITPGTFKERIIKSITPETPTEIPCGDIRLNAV
Sodium-dependent dopamine transporter (Rattus norvegicus, UniProt P23977), sequence (P23977 whole entry): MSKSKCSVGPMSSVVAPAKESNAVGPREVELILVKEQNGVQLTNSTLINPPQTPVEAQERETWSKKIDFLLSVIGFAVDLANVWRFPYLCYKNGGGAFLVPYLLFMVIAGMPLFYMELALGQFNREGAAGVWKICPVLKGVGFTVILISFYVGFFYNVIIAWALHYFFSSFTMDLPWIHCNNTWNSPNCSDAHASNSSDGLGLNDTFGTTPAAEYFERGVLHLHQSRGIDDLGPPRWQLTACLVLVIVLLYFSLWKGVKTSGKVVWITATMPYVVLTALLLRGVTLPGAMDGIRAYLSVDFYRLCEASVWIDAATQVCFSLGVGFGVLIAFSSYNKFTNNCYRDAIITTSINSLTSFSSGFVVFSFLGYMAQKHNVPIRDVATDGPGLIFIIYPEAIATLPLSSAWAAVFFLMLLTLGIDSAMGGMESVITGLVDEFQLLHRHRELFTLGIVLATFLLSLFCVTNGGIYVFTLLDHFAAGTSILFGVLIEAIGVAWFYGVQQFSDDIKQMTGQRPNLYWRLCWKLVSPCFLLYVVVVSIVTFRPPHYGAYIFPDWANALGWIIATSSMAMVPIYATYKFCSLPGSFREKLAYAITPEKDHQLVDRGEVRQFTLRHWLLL
Sodium-dependent serotonin transporter (Rattus norvegicus, UniProt P31652), sequence (P31652 whole entry): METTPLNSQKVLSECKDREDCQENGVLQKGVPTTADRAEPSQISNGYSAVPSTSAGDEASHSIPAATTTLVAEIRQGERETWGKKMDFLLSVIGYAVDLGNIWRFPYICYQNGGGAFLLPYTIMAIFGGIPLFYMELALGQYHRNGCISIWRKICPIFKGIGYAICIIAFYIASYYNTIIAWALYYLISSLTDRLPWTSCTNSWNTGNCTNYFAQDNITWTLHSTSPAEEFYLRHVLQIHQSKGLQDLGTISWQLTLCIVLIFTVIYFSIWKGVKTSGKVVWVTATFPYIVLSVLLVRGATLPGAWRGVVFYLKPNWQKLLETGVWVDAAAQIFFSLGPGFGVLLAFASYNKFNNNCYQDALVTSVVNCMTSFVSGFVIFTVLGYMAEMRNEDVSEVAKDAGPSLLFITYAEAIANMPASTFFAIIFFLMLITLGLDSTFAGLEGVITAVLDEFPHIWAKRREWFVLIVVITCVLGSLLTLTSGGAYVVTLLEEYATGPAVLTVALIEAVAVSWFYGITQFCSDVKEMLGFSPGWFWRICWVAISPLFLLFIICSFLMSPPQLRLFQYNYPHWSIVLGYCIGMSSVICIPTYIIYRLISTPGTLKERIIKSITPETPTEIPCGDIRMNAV
Description for in vitro: Apparent permeability from apical to basolateral side of the human Caco-2 cells
Description for physchem: Dissociation constant, pKa of the compound

Consider `C#CCN(CC)C(=O)[C@@]1(c2cccs2)C[C@H]1CN`, for which, in data set [1], the apparent clearance (CL/F) was 156 mL/min/kg. The IC50 was 81 nM in data set [2]; 160 nM in data set [3]; greater than 10000 nM in data set [10]; greater than 10000 nM in [18]; 19 nM in data set [19]; 160 nM at Transporter. Moreover, the AUC in data set [4] was 3210 ng·h/mL. The concentration ratio (Kp) at 4 h in data set [5] amounted to 0.3. Moreover, in the data set on Rattus norvegicus [6], the Activity came to 56%. In data set [7], the concentration at 4 h was 112 ng/g. Besides, the Tmax in data set [8] is 1.7 h. In addition, the half-life in data set [9] was 1.9 h. In “in vitro”, this compound came in with an apparent permeability from apical to basolateral (Papp A→B) of 20.6 ×10⁻⁶ cm/s. Also, the concentration at 1 h in data set [11] came out at 230 ng/g. The logP in [12] amounted to 1.6. The CLhep predicted at 1 µM is 2.6 mL/min/kg in data set [13] and 44 mL/min/kg in [17]. Moreover, in the data set “physchem”, the pKa turned out to be 9.4. Further, in data set [14], the Kp at 1 h worked out at 0.3. In [15], this compound gave a maximum concentration (Cmax) of 649 ng/mL. The same compound yielded a pH-dependent lipophilicity (logD) in data set [16] of 0.1.
As to `NC[C@@H]1C[C@@]1(C(=O)N1Cc2ccccc2C1)c1cccs1`, the CL/F in [1] is 1840 mL/min/kg. Further, the IC50 was 13 nM in [2]; 25 nM in data set [3]; 5540 nM in data set [10]; 2000 nM in data set [18]; 21 nM in [19]; 15 nM against Transporter. The compound further came in with an AUC in [4] of 272 ng·h/mL. Further, the Kp at 4 h in data set [5] came to 1.8. In the data set with Rattus norvegicus [6], the Activity was determined as 56%. Also, the concentration at 4 h in data set [7] amounted to 24 ng/g. Further, in [8], the time to peak (Tmax) was 1.1 h. In data set [9], the half-life was 2.3 h. Further, the Papp A→B in “in vitro” was 8.4 ×10⁻⁶ cm/s. In addition, the concentration at 1 h in [11] was 28 ng/g. In data set [12], this compound gave a logP of 2.2. In addition, the CLhep predicted at 1 µM in [13] was 8.8 mL/min/kg; in [17] it was 64 mL/min/kg. Moreover, the pKa in “physchem” came out at 9.5. The concentration ratio (Kp) at 1 h in data set [14] was 1. Moreover, the Cmax in data set [15] is 58 ng/mL. Besides, in data set [16], the pH-dependent lipophilicity (logD) was found to be 0.5.
With `C[C@H]1O[C@@H](O[C@H]2[C@@H](O)C[C@H](O[C@H]3[C@@H](O)C[C@H](O[C@H]4CC[C@@]5(C)[C@H](CC[C@@H]6[C@@H]5C[C@@H](O)[C@]5(C)[C@@H](C7=CC(=O)OC7)CC[C@]65O)C4)O[C@@H]3C)O[C@@H]2C)C[C@H](O)[C@@H]1O` [DIGOXIN], in the data set “in vitro”, the apical-to-basolateral permeability (Papp A→B) amounted to 1 ×10⁻⁶ cm/s.
With `C#CCN(CC#C)C(=O)[C@@]1(c2cccs2)C[C@H]1CN`, the IC50 is 26 nM in data set [2], greater than 10000 nM in data set [10] and 6 nM in data set [19]. This compound came in with an apical-to-basolateral permeability (Papp A→B) in the data set “in vitro” of 25 ×10⁻⁶ cm/s. In addition, the log partition coefficient (logP) in data set [12] came to 1.5. The CLhep predicted at 1 µM in data set [13] was 2.6 mL/min/kg; in [17], 43 mL/min/kg. The compound further came in with a pKa in “physchem” of 9.3. For the same compound, the log distribution coefficient (logD) in [16] turned out to be 0.2.
Regarding `CCN(CC)C(=O)[C@]1(c2ccccc2)C[C@H]1CN`, the apparent clearance (CL/F) in data set [20] came to 294 mL/min/kg. Also, the half-life was 1.3 h in [21] and 0.8 h in data set [29]. Also, the Vd came out at 4.3 L/kg in data set [22] and 2 L/kg in data set [32]. In addition, the results for the IC50 (in data set [3]; in [18]; against Transporter) were 28 nM, 20000 nM and 16 nM, respectively. Besides, the figures for the Activity in the data set with Rattus norvegicus [6] and in the data set filed under Rattus norvegicus [28] were 56% and “Dose-dependent effect”, respectively. Moreover, in the data set “in vivo [23]”, the Kp at 1 h was 0.42. Besides, in the data set on Rattus norvegicus [24], the outcome was Active. The compound also returned a Cmax in data set [25] of 232 ng/mL. In data set [26], this compound registered a bioavailability of 16%. In addition, the time of peak concentration (Tmax) in [27] stood at 0.3 h. This compound also had a lipophilicity (logP) in data set [12] of 1.6. Moreover, the CLhep predicted at 1 µM is 5 mL/min/kg in data set [13] and 24 mL/min/kg in [17]. The same compound gave a pKa in “physchem” of 9.6. The AUC in data set [30] was 897 ng·h/mL; in data set [35], 566 ng·h/mL. Moreover, in data set [31], the clearance was 58 mL/min/kg. The compound further returned a logD in [16] of -0.2. This compound returned a Kp at 4 h in the data set “in vivo [33]” of 0.86. Moreover, the mean residence time MRT in data set [34] was found to be 0.52 h.
With `C=CCN(CC)C(=O)[C@@]1(c2cccs2)C[C@H]1CN`, the half-maximal inhibitory concentration (IC50) was 140 nM in [2], greater than 10000 nM in data set [10] and 15 nM in data set [19]. The same compound had an apparent permeability from apical to basolateral (Papp A→B) in the data set “in vitro” of 13.7 ×10⁻⁶ cm/s. For the same compound, the CLhep predicted at 1 µM in data set [13] was 11 mL/min/kg; in data set [17], 62 mL/min/kg.
